In ChEMBL document CHEMBL3124875, “A facile access to novel steroidal 17-2'-(1',3',4')-oxadiazoles, and an evaluation of their cytotoxic activities in vitro” (Bioorg Med Chem Lett, 2014):

What was measured:
[1] = tested on: A-431; assay: Cytotoxicity against human A431 cells at 30 uM after 72 hrs by MTT assay; type: functional; settings: A-431, 72 h
[2] = tested on: A-431; assay: Cytotoxicity against human A431 cells at 10 uM after 72 hrs by MTT assay; type: functional; settings: A-431, 72 h
[3] = tested on: MCF7; assay: Cytotoxicity against human MCF7 cells at 10 uM after 72 hrs by MTT assay; type: functional; settings: MCF7, 72 h
[4] = tested on: MCF7; assay: Cytotoxicity against human MCF7 cells at 30 uM after 72 hrs by MTT assay; type: functional; settings: MCF7, 72 h
[5] = tested on: A2780; assay: Cytotoxicity against human A2780 cells at 30 uM after 72 hrs by MTT assay; type: functional; settings: A2780, 72 h
[6] = tested on: A2780; assay: Cytotoxicity against human A2780 cells at 10 uM after 72 hrs by MTT assay; type: functional; settings: A2780, 72 h
[7] = tested on: HeLa; assay: Cytotoxicity against human HeLa cells at 10 uM after 72 hrs by MTT assay; type: functional
[8] = tested on: HeLa; assay: Cytotoxicity against human HeLa cells at 30 uM after 72 hrs by MTT assay; type: functional
[9] = tested on: A-431; assay: Cytotoxicity against human A431 cells after 72 hrs by MTT assay; type: functional, cell-based; settings: A-431, 72 h
[10] = tested on: A2780; assay: Cytotoxicity against human A2780 cells after 72 hrs by MTT assay; type: functional, cell-based; settings: A2780, 72 h
[11] = tested on: HeLa; assay: Cytotoxicity against human HeLa cells after 72 hrs by MTT assay; type: functional, cell-based
[12] = tested on: MCF7; assay: Cytotoxicity against human MCF7 cells after 72 hrs by MTT assay; type: functional, cell-based; settings: MCF7, 72 h

## CC(=O)O[C@H]1CC[C@@]2(C)C(=CC[C@H]3[C@@H]4CC[C@H]([C@@H]5OC(c6ccccc6)=NN5C(C)=O)[C@@]4(C)CC[C@@H]32)C1
[1]
  inhibition at 30 µM: 30.6%
[2]
  inhibition at 10 µM: < 20%
[3]
  inhibition at 10 µM: < 20%
[4]
  inhibition at 30 µM: < 20%
[5]
  inhibition at 30 µM: 40.3%
[6]
  inhibition at 10 µM: < 20%
[7]
  inhibition at 10 µM: < 20%
[8]
  inhibition at 30 µM: 23%

## CC(=O)O[C@H]1CC[C@@]2(C)C(=CC[C@H]3[C@@H]4CC[C@H](c5nnc(-c6ccccc6)o5)[C@@]4(C)CC[C@@H]32)C1
[1]
  inhibition at 30 µM: 59.1%
[2]
  inhibition at 10 µM: < 20%
[3]
  inhibition at 10 µM: 22.6%
[4]
  inhibition at 30 µM: 41.5%
[5]
  inhibition at 30 µM: 52%
[6]
  inhibition at 10 µM: < 20%
[7]
  inhibition at 10 µM: < 20%
[8]
  inhibition at 30 µM: 57.4%
[9]
  IC50: 25.4 µM
[10]
  IC50: 28.8 µM
[11]
  IC50: 29.4 µM

## C[C@]12CC[C@H]3[C@@H](CC=C4C[C@@H](O)CC[C@@]43C)[C@@H]1CC[C@@H]2c1nnc(-c2ccco2)o1
[1]
  inhibition at 30 µM: 69.2%
[2]
  inhibition at 10 µM: 66.6%
[3]
  inhibition at 10 µM: 42%
[4]
  inhibition at 30 µM: 46.6%
[5]
  inhibition at 30 µM: 37%
[6]
  inhibition at 10 µM: 37.5%
[7]
  inhibition at 10 µM: 74.9%
[8]
  inhibition at 30 µM: 77.5%
[9]
  IC50: 1.82 µM
[11]
  IC50: 1.56 µM

## C[C@]12CC[C@H]3[C@@H](CC=C4C[C@@H](O)CC[C@@]43C)[C@@H]1CC[C@@H]2/C=N/NC(=O)c1ccco1
[1]
  inhibition at 30 µM: 26.1%
[2]
  inhibition at 10 µM: 24.9%
[3]
  inhibition at 10 µM: 21.1%
[4]
  inhibition at 30 µM: 53.2%
[5]
  inhibition at 30 µM: 46.4%
[6]
  inhibition at 10 µM: 21.1%
[7]
  inhibition at 10 µM: 78%
[8]
  inhibition at 30 µM: 91.2%
[12]
  IC50: 28.2 µM
[11]
  IC50: 5.57 µM

## CC(=O)O[C@H]1CC[C@@]2(C)C(=CC[C@H]3[C@@H]4CC[C@H](c5nnc(-c6cccnc6)o5)[C@@]4(C)CC[C@@H]32)C1
[1]
  inhibition at 30 µM: 60.8%
[2]
  inhibition at 10 µM: < 20%
[3]
  inhibition at 10 µM: 21.8%
[4]
  inhibition at 30 µM: 55.7%
[5]
  inhibition at 30 µM: 48.2%
[6]
  inhibition at 10 µM: 22.8%
[7]
  inhibition at 10 µM: 22.5%
[8]
  inhibition at 30 µM: 65.8%
[9]
  IC50: 23.6 µM
[12]
  IC50: 26.1 µM
[11]
  IC50: 20.8 µM

## CC(=O)O[C@H]1CC[C@@]2(C)C(=CC[C@H]3[C@@H]4CC[C@H](/C=N/NC(=O)c5ccco5)[C@@]4(C)CC[C@@H]32)C1
[1]
  inhibition at 30 µM: 40.4%
[2]
  inhibition at 10 µM: 39%
[3]
  inhibition at 10 µM: 26.7%
[4]
  inhibition at 30 µM: 55.1%
[5]
  inhibition at 30 µM: 70.5%
[6]
  inhibition at 10 µM: 26.2%
[7]
  inhibition at 10 µM: 77.8%
[8]
  inhibition at 30 µM: 91.2%
[10]
  IC50: 11.3 µM
[12]
  IC50: 11.9 µM
[11]
  IC50: 6.95 µM

## C[C@]12CC[C@H]3[C@@H](CC=C4C[C@@H](O)CC[C@@]43C)[C@@H]1CC[C@@H]2/C=N/NC(=O)c1cccnc1
[1]
  inhibition at 30 µM: 71.8%
[2]
  inhibition at 10 µM: 40.1%
[3]
  inhibition at 10 µM: < 20%
[4]
  inhibition at 30 µM: 82.9%
[5]
  inhibition at 30 µM: 66.4%
[6]
  inhibition at 10 µM: 23.5%
[7]
  inhibition at 10 µM: 80.5%
[8]
  inhibition at 30 µM: 90.9%
[9]
  IC50: 12.8 µM
[10]
  IC50: 11.3 µM
[12]
  IC50: 18.9 µM
[11]
  IC50: 5.54 µM

## CC(=O)O[C@H]1CC[C@@]2(C)C(=CC[C@H]3[C@@H]4CC[C@H](/C=N/NC(=O)c5ccccc5)[C@@]4(C)CC[C@@H]32)C1
[1]
  inhibition at 30 µM: 45.5%
[2]
  inhibition at 10 µM: 45.1%
[3]
  inhibition at 10 µM: < 20%
[4]
  inhibition at 30 µM: 44.4%
[5]
  inhibition at 30 µM: 89.2%
[6]
  inhibition at 10 µM: 44.3%
[7]
  inhibition at 10 µM: 71.2%
[8]
  inhibition at 30 µM: 90.2%
[10]
  IC50: 11.4 µM
[11]
  IC50: 5.04 µM

## C[C@]12CC[C@H]3[C@@H](CC=C4C[C@@H](O)CC[C@@]43C)[C@@H]1CC[C@@H]2/C=N/NC(=O)c1ccccc1
[1]
  inhibition at 30 µM: 38.1%
[2]
  inhibition at 10 µM: < 20%
[3]
  inhibition at 10 µM: < 20%
[4]
  inhibition at 30 µM: 48%
[5]
  inhibition at 30 µM: 60.9%
[6]
  inhibition at 10 µM: 32.6%
[7]
  inhibition at 10 µM: 72.2%
[8]
  inhibition at 30 µM: 90.4%
[10]
  IC50: 20.3 µM
[11]
  IC50: 4.68 µM

## C[C@]12CC[C@H]3[C@@H](CC=C4C[C@@H](O)CC[C@@]43C)[C@@H]1CC[C@@H]2c1nnc(-c2cccnc2)o1
[1]
  inhibition at 30 µM: 65.4%
[2]
  inhibition at 10 µM: 60.3%
[3]
  inhibition at 10 µM: 41.6%
[4]
  inhibition at 30 µM: 45.5%
[5]
  inhibition at 30 µM: 33.3%
[6]
  inhibition at 10 µM: 31.9%
[7]
  inhibition at 10 µM: 71.7%
[8]
  inhibition at 30 µM: 74.2%
[9]
  IC50: 6.76 µM
[11]
  IC50: 4.83 µM

## CC(=O)O[C@H]1CC[C@@]2(C)C(=CC[C@H]3[C@@H]4CC[C@H]([C@H]5OC(c6ccccc6)=NN5C(C)=O)[C@@]4(C)CC[C@@H]32)C1
[1]
  inhibition at 30 µM: 41.7%
[2]
  inhibition at 10 µM: 22.7%
[3]
  inhibition at 10 µM: < 20%
[4]
  inhibition at 30 µM: 26.7%
[5]
  inhibition at 30 µM: 53.5%
[6]
  inhibition at 10 µM: 20.2%
[7]
  inhibition at 10 µM: < 20%
[8]
  inhibition at 30 µM: 71.3%
[10]
  IC50: 27.3 µM
[11]
  IC50: 21.5 µM

## CC(=O)O[C@H]1CC[C@@]2(C)C(=CC[C@H]3[C@@H]4CC[C@H](/C=N/NC(=O)c5cccnc5)[C@@]4(C)CC[C@@H]32)C1
[1]
  inhibition at 30 µM: 37%
[2]
  inhibition at 10 µM: 37.1%
[3]
  inhibition at 10 µM: < 20%
[4]
  inhibition at 30 µM: 28.7%
[5]
  inhibition at 30 µM: 84.3%
[6]
  inhibition at 10 µM: 27.8%
[7]
  inhibition at 10 µM: 65.8%
[8]
  inhibition at 30 µM: 88%
[10]
  IC50: 16.5 µM
[11]
  IC50: 6.44 µM

## CC(=O)O[C@H]1CC[C@@]2(C)C(=CC[C@H]3[C@@H]4CC[C@H](c5nnc(-c6ccco6)o5)[C@@]4(C)CC[C@@H]32)C1
[1]
  inhibition at 30 µM: 25.9%
[2]
  inhibition at 10 µM: < 20%
[3]
  inhibition at 10 µM: 26.1%
[4]
  inhibition at 30 µM: 45.3%
[5]
  inhibition at 30 µM: 43.5%
[6]
  inhibition at 10 µM: 24.1%
[7]
  inhibition at 10 µM: 27.5%
[8]
  inhibition at 30 µM: 48.2%

## C[C@]12CC[C@H]3[C@@H](CC=C4C[C@@H](O)CC[C@@]43C)[C@@H]1CC[C@@H]2c1nnc(-c2ccccc2)o1
[1]
  inhibition at 30 µM: 69.9%
[2]
  inhibition at 10 µM: 68%
[3]
  inhibition at 10 µM: 31.6%
[4]
  inhibition at 30 µM: 35.3%
[5]
  inhibition at 30 µM: 38.7%
[6]
  inhibition at 10 µM: 29.2%
[7]
  inhibition at 10 µM: 77.4%
[8]
  inhibition at 30 µM: 80.7%
[9]
  IC50: 1.91 µM
[11]
  IC50: 1.69 µM
